Test results taken from patent publication US8952024B2, “Herbicidal pyrimidone derivatives” (E I du Pont de Nemours and Company, priority 2009, dated 2015).

Assays:
Test in all cases: Test B pre-/postemergence plant response
Assay type in all cases: in vivo
[1] = test system: Italian ryegrass (Lolium multiflorum)
Procedure, shortened: (§1)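 Visually scored on a 0 to 100 scale after 13 to 15 days in greenhouse versus controls. Treatments were preemergence on seeded loam/sand soil and postemergence on 1- to 4-leaf plants.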

[2] = test system: Surinam grass (Brachiaria decumbens)
Procedure, shortened: as §1

[3] = test system: blackgrass (Alopecurus myosuroides)
Procedure, shortened: as §1

corn (Zea mays) = test system: corn (Zea mays)
Procedure, shortened: as §1

[4] = test system: downy bromegrass (Bromus tectorum)
Procedure, shortened: as §1

[5] = test system: goosegrass (Eleusine indica)
Procedure, shortened: as §1

[6] = test system: johnsongrass (Sorghum halepense)
Procedure, shortened: as §1

kochia (Kochia scoparia) = details: Postemergence
Procedure, shortened: as §1

[7] = test system: lambsquarters (Chenopodium album)
Procedure, shortened: as §1

[8] = test system: large crabgrass (Digitaria sanguinalis)
Procedure, shortened: as §1

[9] = test system: pigweed (Amaranthus retroflexus)
Procedure, shortened: as §1

[10] = test system: ragweed (common ragweed, Ambrosia elatior)
Procedure, shortened: as §1

soybean (Glycine max) = test system: soybean (Glycine max)
Procedure, shortened: as §1

[11] = test system: velvetleaf (Abutilon theophrasti)
Procedure, shortened: as §1

[12] = test system: wheat (Triticum aestivum)
Procedure, shortened: as §1

wild oat (Avena fatua) = test system: wild oat (Avena fatua)
Procedure, shortened: as §1

[13] = test system: woolly cupgrass (Eriochloa villosa)
Procedure, shortened: as §1

[14] = test system: yellow nutsedge (Cyperus esculentus)
Procedure, shortened: as §1

[15] = Postemergence, 31 g ai/ha, 0 to 100 scale (0 no effect, 100 complete control)
[16] = Postemergence, 250 g ai/ha, scale 0 to 100 (0 no effect, 100 complete control), 13 to 15 days
[17] = Postemergence, 62 g ai/ha, scale 0 to 100 (0 no effect, 100 complete control)
[18] = Preemergence, 31 g ai/ha, scale 0 to 100 (0 no effect, 100 complete control)
[19] = Preemergence, 62 g ai/ha, scale 0 to 100, 0 no effect, 100 complete control
[20] = Preemergence, 125 g ai/ha, scale 0 to 100, 0 no effect, 100 complete control
[21] = Preemergence, 250 g ai/ha, 0 to 100 scale
[22] = Postemergence, 125 g ai/ha, scale 0 to 100 (0 no effect, 100 complete control)

## CCCc1ncc(C(=O)C2=C(O)CCCC2=O)c(=O)n1-c1ccccc1 [Compound 217]
[1]; [15]
  Plant response rating, Ryegrass, Italian: 0
[1]; [16]
  Plant response rating, Ryegrass, Italian: 40
[1]; [17]
  Plant response rating, Ryegrass, Italian: 30
[1]; [18]
  Plant response rating, Ryegrass, Italian: 0
[1]; [19]
  Plant response rating, Ryegrass, Italian: 0
[1]; [20]
  Plant response rating, Ryegrass, Italian: 5
[1]; [21]
  Ryegrass, Italian plant response rating: 10
[2]; [15]
  Plant response rating, Surinam Grass: 70
[2]; [16]
  Plant response rating, Surinam Grass: 95
[2]; [17]
  Plant response rating, Surinam Grass: 80
[2]; [18]
  Plant response rating, Surinam Grass: 45
[2]; [19]
  Plant response rating, Surinam Grass: 75
[2]; [20]
  Plant response rating, Surinam Grass: 85
[2]; [21]
  Surinam Grass plant response rating: 90
[3]; [15]
  Plant response rating, Blackgrass: 0
[3]; [22]
  Plant response rating, Blackgrass: 30
[3]; [16]
  Plant response rating, Blackgrass: 30
[3]; [17]
  Plant response rating, Blackgrass: 5
[3]; [18]
  Plant response rating, Blackgrass: 0
[3]; [19]
  Plant response rating, Blackgrass: 0
[3]; [20]
  Plant response rating, Blackgrass: 0
[3]; [21]
  Blackgrass plant response rating: 0
Corn (Zea mays); [15]
  Plant response rating, Corn: 0
Corn (Zea mays); [22]
  Plant response rating, Corn: 25
Corn (Zea mays); [16]
  Plant response rating, Corn: 35
Corn (Zea mays); [17]
  Plant response rating, Corn: 10
Corn (Zea mays); [18]
  Plant response rating, Corn: 0
Corn (Zea mays); [19]
  Plant response rating, Corn: 0
Corn (Zea mays); [20]
  Plant response rating, Corn: 0
Corn (Zea mays); [21]
  Corn plant response rating: 0
[4]; [15]
  Plant response rating, Bromegrass, Downy: 10
[4]; [22]
  Plant response rating, Bromegrass, Downy: 40
[4]; [16]
  Plant response rating, Bromegrass, Downy: 65
[4]; [17]
  Plant response rating, Bromegrass, Downy: 15
[4]; [18]
  Plant response rating, Bromegrass, Downy: 0
[4]; [19]
  Plant response rating, Bromegrass, Downy: 0
[4]; [20]
  Plant response rating, Bromegrass, Downy: 0
[4]; [21]
  Bromegrass, Downy plant response rating: 0
[5]; [15]
  Plant response rating, Goosegrass: 80
[5]; [22]
  Plant response rating, Goosegrass: 85
[5]; [16]
  Plant response rating, Goosegrass: 95
[5]; [17]
  Plant response rating, Goosegrass: 80
[5]; [18]
  Plant response rating, Goosegrass: 95
[5]; [19]
  Plant response rating, Goosegrass: 98
[5]; [20]
  Plant response rating, Goosegrass: 100
[5]; [21]
  Goosegrass plant response rating: 100
[6]; [15]
  Plant response rating, Johnsongrass: 0
[6]; [22]
  Plant response rating, Johnsongrass: 60
[6]; [16]
  Plant response rating, Johnsongrass: 65
[6]; [17]
  Plant response rating, Johnsongrass: 60
[6]; [18]
  Plant response rating, Johnsongrass: 0
[6]; [19]
  Plant response rating, Johnsongrass: 5
[6]; [20]
  Plant response rating, Johnsongrass: 20
[6]; [21]
  Johnsongrass plant response rating: 55
Kochia (Kochia scoparia); 31 g ai/ha, 0 to 100 scale (0 no effect, 100 complete control)
  Plant response rating, Kochia: 75
Kochia (Kochia scoparia); 125 g ai/ha, scale 0 to 100 (0 no effect, 100 complete control)
  Plant response rating, Kochia: 100
Kochia (Kochia scoparia); 250 g ai/ha, scale 0 to 100 (0 no effect, 100 complete control), 13 to 15 days
  Plant response rating, Kochia: 100
Kochia (Kochia scoparia); 62 g ai/ha, scale 0 to 100 (0 no effect, 100 complete control)
  Plant response rating, Kochia: 98
[7]; [15]
  Plant response rating, Lambsquarters: 90
[7]; [22]
  Plant response rating, Lambsquarters: 100
[7]; [16]
  Plant response rating, Lambsquarters: 100
[7]; [17]
  Plant response rating, Lambsquarters: 100
[7]; [18]
  Plant response rating, Lambsquarters: 95
[7]; [19]
  Plant response rating, Lambsquarters: 100
[7]; [20]
  Plant response rating, Lambsquarters: 100
[7]; [21]
  Lambsquarters plant response rating: 100
[8]; [15]
  Plant response rating, Crabgrass, Large: 80
[8]; [22]
  Plant response rating, Crabgrass, Large: 90
[8]; [16]
  Plant response rating, Crabgrass, Large: 98
[8]; [17]
  Plant response rating, Crabgrass, Large: 85
[8]; [18]
  Plant response rating, Crabgrass, Large: 95
[8]; [19]
  Plant response rating, Crabgrass, Large: 100
[8]; [20]
  Plant response rating, Crabgrass, Large: 100
[8]; [21]
  Crabgrass, Large plant response rating: 100
[9]; [15]
  Plant response rating, Pigweed: 85
[9]; [16]
  Plant response rating, Pigweed: 100
[9]; [17]
  Plant response rating, Pigweed: 100
[9]; [18]
  Plant response rating, Pigweed: 95
[9]; [19]
  Plant response rating, Pigweed: 100
[9]; [20]
  Plant response rating, Pigweed: 100
[9]; [21]
  Pigweed plant response rating: 100
[10]; [15]
  Plant response rating, Ragweed: 80
[10]; [16]
  Plant response rating, Ragweed: 98
[10]; [17]
  Plant response rating, Ragweed: 80
[10]; [18]
  Plant response rating, Ragweed: 60
[10]; [19]
  Plant response rating, Ragweed: 60
[10]; [20]
  Plant response rating, Ragweed: 90
[10]; [21]
  Ragweed plant response rating: 95
Soybean (Glycine max); [15]
  Plant response rating, Soybean: 75
Soybean (Glycine max); [16]
  Plant response rating, Soybean: 98
Soybean (Glycine max); [17]
  Plant response rating, Soybean: 85
Soybean (Glycine max); [18]
  Plant response rating, Soybean: 0
Soybean (Glycine max); [19]
  Plant response rating, Soybean: 0
Soybean (Glycine max); [20]
  Plant response rating, Soybean: 0
Soybean (Glycine max); [21]
  Soybean plant response rating: 0
[11]; [15]
  Plant response rating, Velvetleaf: 98
[11]; [16]
  Plant response rating, Velvetleaf: 100
[11]; [17]
  Plant response rating, Velvetleaf: 98
[11]; [18]
  Plant response rating, Velvetleaf: 95
[11]; [19]
  Plant response rating, Velvetleaf: 100
[11]; [20]
  Plant response rating, Velvetleaf: 100
[11]; [21]
  Velvetleaf plant response rating: 100
[12]; [15]
  Plant response rating, Wheat: 30
[12]; [16]
  Plant response rating, Wheat: 50
[12]; [17]
  Plant response rating, Wheat: 45
[12]; [18]
  Plant response rating, Wheat: 0
[12]; [19]
  Plant response rating, Wheat: 0
[12]; [20]
  Plant response rating, Wheat: 0
[12]; [21]
  Wheat plant response rating: 0
Wild oat (Avena fatua); [15]
  Plant response rating, Oat, Wild: 30
Wild oat (Avena fatua); [16]
  Plant response rating, Oat, Wild: 85
Wild oat (Avena fatua); [17]
  Plant response rating, Oat, Wild: 40
Wild oat (Avena fatua); [18]
  Plant response rating, Oat, Wild: 0
Wild oat (Avena fatua); [19]
  Plant response rating, Oat, Wild: 0
Wild oat (Avena fatua); [20]
  Plant response rating, Oat, Wild: 0
Wild oat (Avena fatua); [21]
  Oat, Wild plant response rating: 0
[13]; [15]
  Plant response rating, Cupgrass, Woolly: 25
[13]; [22]
  Plant response rating, Cupgrass, Woolly: 45
[13]; [16]
  Plant response rating, Cupgrass, Woolly: 55
[13]; [17]
  Plant response rating, Cupgrass, Woolly: 45
[13]; [18]
  Plant response rating, Cupgrass, Woolly: 0
[13]; [19]
  Plant response rating, Cupgrass, Woolly: 5
[13]; [20]
  Plant response rating, Cupgrass, Woolly: 65
[13]; [21]
  Cupgrass, Woolly plant response rating: 80
[14]; [15]
  Plant response rating, Nutsedge, Yellow: 10
[14]; [22]
  Plant response rating, Nutsedge, Yellow: 70
[14]; [16]
  Plant response rating, Nutsedge, Yellow: 70
[14]; [17]
  Plant response rating, Nutsedge, Yellow: 60
[14]; [18]
  Plant response rating, Nutsedge, Yellow: 60
[14]; [19]
  Plant response rating, Nutsedge, Yellow: 65
[14]; [20]
  Plant response rating, Nutsedge, Yellow: 70
[14]; [21]
  Nutsedge, Yellow plant response rating: 90
